Reference: patent US20220168261A1, “COMPOUNDS AND METHODS FOR MANAGING CANCER THROUGH IMMUNE SYSTEM” (AKAMARA THERAPEUTICS, INC., priority 2019, published 2022)

Legend:
CMTR2 [1] = biological target: T1, CMTR2 (Mus musculus, UniProt Q8BWQ4); assay: Proteomics target identification (anti-cholesterol IP and chemical pulldown) from 4T1 lysate; format: binding
T1 construct: endogenous in cells; host or cells: 4T1 cells (lysate)
T1 sequence (Q8BWQ4 1-767): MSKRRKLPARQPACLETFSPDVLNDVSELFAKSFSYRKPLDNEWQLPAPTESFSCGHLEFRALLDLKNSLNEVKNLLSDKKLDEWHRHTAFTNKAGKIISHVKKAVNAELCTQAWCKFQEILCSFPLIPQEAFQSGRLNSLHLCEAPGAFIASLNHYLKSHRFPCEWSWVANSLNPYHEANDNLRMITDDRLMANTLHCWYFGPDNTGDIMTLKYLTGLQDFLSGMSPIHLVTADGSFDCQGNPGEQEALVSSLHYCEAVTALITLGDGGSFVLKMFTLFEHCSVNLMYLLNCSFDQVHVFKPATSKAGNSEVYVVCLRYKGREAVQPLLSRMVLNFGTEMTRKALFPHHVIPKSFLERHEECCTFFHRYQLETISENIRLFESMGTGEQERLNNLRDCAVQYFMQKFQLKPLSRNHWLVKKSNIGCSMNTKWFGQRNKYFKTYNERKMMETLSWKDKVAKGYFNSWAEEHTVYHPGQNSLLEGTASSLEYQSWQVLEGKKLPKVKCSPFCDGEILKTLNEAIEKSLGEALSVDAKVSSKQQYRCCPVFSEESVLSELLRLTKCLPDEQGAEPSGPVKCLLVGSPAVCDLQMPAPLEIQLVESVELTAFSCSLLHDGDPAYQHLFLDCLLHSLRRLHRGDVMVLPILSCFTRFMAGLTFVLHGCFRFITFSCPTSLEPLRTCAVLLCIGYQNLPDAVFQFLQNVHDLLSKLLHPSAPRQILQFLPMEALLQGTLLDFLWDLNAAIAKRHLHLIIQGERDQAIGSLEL
Method: (§1) Cap-specific mRNA (nucleoside-2′-O-)-methyltransferase 2 (CMTR2) is an enzyme that methylates at the 2′-O position of the second transcribed nucleotide of mRNAs.
In this example, two different proteomics approach were used to identify the target of Compound 1: (i) an anti-drug antibody (binds to cholesterol in Compound 1) and (ii) Compound A-1, where both (i) and (ii) were used to precipitate targets from 4T1 lysates. The 4T1 cell lysate was treated with pegylated Compound 1 for 20 hours. The 4T1 cells lysate was, independently, combined with the proteins of Table A or treated with Compound 1 and then combined with the proteins of Table A. Precipitated proteins were digested into peptides and identified using LC-MS/MS. Table A provides a summary of the proteins identified from both approaches that were enriched in Compound 1 samples above the background.

CMTR2 [2] = biological target: T1, CMTR2; assay: Binding of CMTR2 to Compound 1 by ELISA
From the text: as §1

4T1 cells [3] = assay: CMTR2 levels in 4T1 cells upon treatment; format: cell-based
From the text: as §1
Alternatively, the unmethylated mRNA could also be recognized by toll-like receptors (TLR) like TLR3. Both of these would trigger many interferon regulatory factors (IRFs) leading to a type-I interferon antiviral response. The interferons can induce interferon stimulated genes (ISGs) such as interferon induced tetratricopeptide repeat protein 1 (IFIT1), which binds to unmethylated mRNA with high affinity. Furthermore, the immune system would be activated by the interferons. Additionally, the unmethylated mRNA could be secreted out from the tumor cells resulting in B-cell activation.

4T1 cells [4] = assay: Interferon pathway / anti-viral response in 4T1 cells (RT-q-PCR, iBlot); format: cell-based
Method: RT-q-PCR was performed with RNA extracted from 4T1 cells treated with 30 μM of Compound 1 or vehicle for 24 h. […] The result is representative of n=3.
See, FIG. 16. The unmethylated mRNA generated due to inhibition of CMTR2 activity leads to recognition by sensors like MDA5 and TLR3 in conjunction with adapters like TRIF.

4T1 tumors = assay: 4T1 breast tumors in mice in vivo; set-up: species or system BALB/c mice
Lewis lung carcinoma = assay: Immunocompetent Lewis lung carcinoma model; format: in vivo, mice
From the text: This model was therefore used to test whether the activation of both T cells, using a PD1 inhibitor, and B cells, using Compound 1, results in synergy. In this experiment, four groups of mice models for immunocompetent Lewis lung carcinoma were utilized. The mice were, independently, intravenously treated with control, Compound 1, anti-PD-1, or Compound 1+ anti-PD-1 and tumor growth monitored for at least 28 days post-tumor induction. The following table describes the treatments utilized in the experiment.

4T1 cells [5] = assay: Intracellular distribution of platinum and intact drug in 4T1 cells (AAS, RPHPLC); format: cell-based; conditions: 50 μM
Method: The remaining insoluble proteins were resuspended in RIPA lysis buffer. The leftover genomic DNA (gDNA) pellet was treated with methanol to dissociate any non-covalently bound platinum from the gDNA. All the fractions were assayed by atomic absorption spectroscopy (AAS) to determine their Pt content. […] Data was generated from three independent biological experiments and error represents standard error of mean.

[6] = Pharmacokinetics after single i.v. bolus in tumor bearing mice; format: in vivo, female Balb/c mice; conditions: plasma, LC-MS/MS, noncompartmental analysis
Method: The pharmacokinetic (PK) profile of Compound 1 was evaluated following single intravenous (i.v bolus) dosing in tumor bearing female Balb/c mice. Tumor and plasma samples were collected at various time points, sparse sampling (n=3). Plasma concentrations were determined using LC-MS/MS and later subjected to Phoenix WinNonlin Noncompartmental analysis and PK parameters were estimated.

[7] = Single dose toxicity study in rats; format: in vivo; conditions: for ALP (Hepatic), Mean / ALT (Hepatic), Mean / AST (Hepatic), Mean / Creatinine (Renal), Mean / Hemoglobin (Anemia), Mean / Neutrophil (Neutropenia), Mean / Platelet (Thrombocytopenia), Mean: rat, in vivo
Method: Further, Compound 1 was also tested for safety end point evaluation in rats. […] Doses of 44 mg/kg, 88 mg/kg and 176 mg/kg were tested and 176 mg/kg was LTD.

[8] = tumors regressed by 20% on day three

CC(C)CCC[C@@H](C)[C@H]1CCC2C3CC=C4C[C@@H](OCCN(CC(=O)[O-])CC(=O)[O][Pt+]5[NH][C@@H]6CCCC[C@H]6[NH]5)CC[C@]4(C)C3CC[C@@]21C (stereo partly drawn) [Compound 1]
False discovery rate of CMTR2 as lead putative target (CMTR2 [1]; LC-MS/MS of proteins precipitated from 4T1 lysates): less than 1%
Binding to CMTR2 by proteomics (CMTR2 [1]; anti-cholesterol IP and chemical pulldown, 4T1 cell lysate): binds to CMTR2
Binding of CMTR2 by ELISA (CMTR2 [2]): confirmed by ELISA
CMTR2 level in 4T1 cell lysate (4T1 cells [3]): dose-dependent upregulation of CMTR2
mRNA expression of TLRs, IRF7 and IFN genes (4T1 cells [4]; 30 μM, 24 h, RT-q-PCR, n=3): robust increase in expression
Secreted (extracellular) INF-α levels (4T1 cells [4]; iBlot, FIG. 19A-19B): remarkably high
Intracellular INF-α levels (4T1 cells [4]; iBlot, FIGS. 18A-18B): significantly elevated
Innate anti-viral response (relative mRNA expression INF-α, IRF7, TRIF, TLR3) (4T1 cells [4]; varying concentration, FIG. 16): activation of the innate anti-viral response in a dose-dependent manner
IRF7 levels (4T1 cells [4]; varying concentrations, FIG. 17): increased levels in 4T1 cells in a dose-dependent manner
4T1 tumor ablation in mice lacking B cells (4T1 tumors; 88 mg/kg, 2 cycles, T and B-cell knockout (SCID) mice, FIG. 26): 4T1 tumor ablation does not happen in mice lacking B cells
Tumor growth following re-implantation of cancer cells (4T1 tumors; 88 mg/kg, 2 cycles, animals with previous tumor regression, FIG. 27): No tumor growth occurs
Tumor growth inhibition with increasing doses (4T1 tumors; 4T1 breast cancer-bearing mice, FIG. 10): clear dose-dependent effect
Infiltrating immune cells in tumor sections (immunohistology) (4T1 tumors; 50% regressed tumors): increased IGKC levels, and increased infiltration of memory B cells (CD20+) and plasma B cells (CD138)
B cell biomarker transcripts IGKC and CD21 in tumor (RTPCR) (4T1 tumors; FIGS. 8B to 8E): increase in IGKC and CD21
CD8a in tumor (RTPCR) (4T1 tumors; FIGS. 8B to 8E): increase in CD8a cells
4T1 tumor growth (4T1 tumors; administered on days 1, 2, 6, and 7, female Balb/c mice): ablated 4T1 tumors
Body weight (4T1 tumors; administered on days 1, 2, 6, and 7, up to 29 days post-implantation): without any loss in body weight
Tumor size of established 4T1 tumors (4T1 tumors; cumulative dose of 176 mg/kg per cycle, 2 cycles, immunocompetent syngeneic BALB/c mice): tumor regression is observed
% B-cell in tumor by FACS (4T1 tumors; day 3): infiltrating the tumor
IFIT1 levels in plasma (dot-blot) (4T1 tumors; days 3, 4, 5, and 8): elevated on days 3 to 8
INF-α levels in plasma (dot-blot) (4T1 tumors; days 3, 4, 5, and 8): elevated in plasma
B cell phenotype by FACS in draining lymph node and spleen (4T1 tumors; post-regression, spleen following rechallenge): increase in B cells with a reduction in Bregs
Tumor growth post rechallenge with cancer cells (immune memory) (4T1 tumors; reinjected with 4T1 cells twenty-five days post-regression, no additional treatment): absence of any tumor growth
IFN gene expression in 4T1 tumors (4T1 tumors; [8]): robust increase in expression
IRF3 and IRF7 gene expression in 4T1 tumors (4T1 tumors; [8]): increased expression is observed for IRF3 and IRF7
Tumor growth (Lewis lung carcinoma; different dose regimens, compared with a MTD dose of oxaliplatin): significant tumor growth inhibition
CD8a levels (immuno-transcripts) (Lewis lung carcinoma; mouse, in vivo): no increase was seen in CD8a levels
Combination effect with PD1 immune checkpoint inhibitor (Lewis lung carcinoma; mouse, in vivo): synergizes with PD1 immune checkpoint inhibitor
IGKC signal (immuno-transcripts) (Lewis lung carcinoma; mouse, in vivo): increase in IGKC signal
Intracellular integrity (intact concentration by RPHPLC vs platinum by AAS) (4T1 cells [5]): remains intact intracellularly
Estimated AUC versus dose [6]: increased linearly with dose
Tolerability of the remaining doses ([7]; 44 mg/kg and 88 mg/kg, single intravenous infusion (30 min)): well tolerated without any significant clinical signs
ALP (Hepatic), Mean ([7]; 44 mg/kg): 107.60 U/L
ALT (Hepatic), Mean ([7]; 44 mg/kg): 30.00 U/L
AST (Hepatic), Mean ([7]; 44 mg/kg): 110.60 U/L
Creatinine (Renal), Mean ([7]; 44 mg/kg): 0.49 mg/dL
Hemoglobin (Anemia), Mean ([7]; 44 mg/kg): 15.84 g/dL
Neutrophil (Neutropenia), Mean ([7]; 44 mg/kg): 0.72 × 10^3 cells/μL
Platelet (Thrombocytopenia), Mean ([7]; 44 mg/kg): 1201.2 × 10^3 cells/μL
ALP (Hepatic), Mean ([7]; 88 mg/kg): 133.00 U/L
ALT (Hepatic), Mean ([7]; 88 mg/kg): 25.60 U/L
AST (Hepatic), Mean ([7]; 88 mg/kg): 106.00 U/L
Creatinine (Renal), Mean ([7]; 88 mg/kg): 0.49 mg/dL
Hemoglobin (Anemia), Mean ([7]; 88 mg/kg): 14.92 g/dL
Neutrophil (Neutropenia), Mean ([7]; 88 mg/kg): 0.80 × 10^3 cells/μL
Platelet (Thrombocytopenia), Mean ([7]; 88 mg/kg): 1376.2 × 10^3 cells/μL
ALP (Hepatic), Mean ([7]; 176 mg/kg): 209.5 U/L
ALT (Hepatic), Mean ([7]; 176 mg/kg): 42.50 U/L
AST (Hepatic), Mean ([7]; 176 mg/kg): 141.50 U/L
Creatinine (Renal), Mean ([7]; 176 mg/kg): 0.52 mg/dL
LTD ([7]; single intravenous infusion (30 min), both genders): 176 mg/kg
